Assay results reported in US7829591B2, “Flavanone compound and uses thereof” (Pokka Corporation, priority 2003, dated 2010).

How the values were obtained:
[1] = DPPH radical scavenging activity test; type: biochemical; details: 25 μM sample solution in ethanol, 1 h in dark, absorbance 517 nm; average ± SD of three runs
Procedure: DPPH (α,α-diphenyl-β-picrylhydradil) is a purple stable radical having a maximum absorption at 517 nm, which is converted into colorless hydrazine by gaining hydrogen. This color reaction was utilized so as to determine the radical scavenging activity of each of Compounds 1 to 4 and the like. That is, each of Compounds 1 to 4 was dissolved in ethanol to prepare 3 ml of a sample solution having a concentration of 25 μM. Thereafter, to each of the resultant sample solutions, 0.75 ml of a 0.5 mM DPPH solution (whose solvent was ethanol) was added and stirred, and reacted in a dark place for one hour, followed by the determination of an absorbance at 517 nm. Furthermore, in place of Compounds 1 to 4, BHT (butylated hydroxytoluene), α-tocopherol or eriodictyol was used so as to determine an absorbance according to a similar procedure to the above. Besides, instead of the above sample solutions, ethanol was used as a control so as to determine an absorbance according to a similar procedure to the above. Then the radical scavenging activity (%) of each of the materials was calculated using the following calculation formula 1. Incidentally, each of values shown in Table 1 is the average value and standard deviation of values obtained from three runs. (Radical Scavenging Activity)=[{(Absorbance of Control)−(Absorbance of Sample Solution)}/(Absorbance of Control)]×100 Calculation Formula 1

β-carotene fading test = type: biochemical; details: 20 μM in reaction liquid, 60° C. for 60 minutes, absorbance 470 nm; average ± SD of three runs
Procedure: β-carotene will fade due to the reaction of linoleic acid peroxide, which is produced by the autoxidation of linoleic acid, with a double bond in β-carotene. This phenomenon was utilized so as to determine the antioxidant activity of each of Compounds 1 to 4 and the like. That is, first of all, 2 ml of a 200 mg/ml solution of Tween-40 in chloroform, 0.4 ml of a 100 mg/ml solution of linoleic acid in chloroform, and 3 ml of a 0.1 mg/ml solution of β-carotene in chloroform were mixed, and thereafter the solvent was removed by using a nitrogen gas. Subsequently, 100 ml of distilled water was added thereto, and adequately stirred to obtain an emulsion. To 3 ml of this emulsion, ethanol was added to completely dissolve the solute in the solvent. Thereafter, each of Compounds 1 to 4 was dissolved in ethanol so as to prepare a sample solution having a concentration of 1.2 mM. 50 μl of the sample solution was mixed with the above emulsion wherein the solute had been completely dissolved so as to prepare a reaction liquid (or a sample reaction liquid). Then the concentration of each of Compounds 1 to 4 in the reaction liquid was 20 μM. The reaction liquid was incubated at 60° C. for 60 minutes. Then the absorbance of each of the reaction liquid before the incubation and the reaction liquid after the incubation was determined at 470 nm. Furthermore, BHT, α-tocopherol, or eriodictyol was used in place of Compounds 1 to 4 so as to determine the absorbance of the reaction liquid before and after incubation according to a similar procedure to the above-mentioned one. In addition, as a control, a reaction liquid (or a control reaction liquid) wherein no sample solution was contained was prepared so as to determine the absorbance of the reaction liquid before and after incubation according to a similar procedure to the above-mentioned one. The antioxidant activity (%) of each of the materials was calculated using the following calculation formula 2. Incidentally, each of values shown in Table 1 is the average value and standard deviation of values obtained from three runs. (Antioxidant Activity)=[{(Fading Rate of Control)−(Fading Rate of Sample Solution)}/(Fading Rate of Control)]×100 Calculation Formula 2
It should be noted that in the calculation formula 2, “Fading Rate of Control” is the natural logarithm of a value which is acquired by dividing the absorbance of the control reaction liquid before incubation by the absorbance of the control reaction liquid after incubation and further by dividing the resultant value by 60; and “Fading Rate of Sample Solution” is the natural logarithm of a value which is acquired by dividing the absorbance of the sample reaction liquid before incubation by the absorbance of the sample reaction liquid after incubation and further by dividing the resultant value by 60.

[2] = system: breast cancer cells (MCF-7); assay: Breast cancer cell proliferation-inhibition test; type: cell-based; details: 0.1 nM estradiol, Control 1 at 0 day = 1
Procedure: When breast cancer cells (MCF-7) are cultured, if estradiol (or 17β-estradiol) having a cell-proliferation accelerating action, is added thereto, the proliferation of breast cancer cells can be simply promoted in a short period. This phenomenon was utilized so as to examine the effect of each of Compounds 1 to 4 and the like on the proliferation inhibition of breast cancer cells. That is, first of all, each of Compounds 1 to 4 was diluted with dimethyl sulfoxide to prepare a sample solution. Thereafter, 2×10^3 of MCF-7 were inoculated in each well of a 96-well plate, and estradiol and the sample solution were added thereto after 4 hours. Estradiol was added to each compartment so that the final concentration of estradiol can be 0.1 nM, and the final concentration of the sample solution can be 0.2 μM, 2 μM, or 20 μM. After incubation for a predetermined period of time (three or five days), each of the media was replaced with a new medium, and an enzyme solution (Cell counting Kit-8: Wako) was added to the new medium in an amount of 10% of the new medium. After maintained the medium in an incubator at a temperature of 37° C. for two hours, the absorbance of the medium was determined at a wavelength of 450 nm (a reference wave length of 630 nm) by means of a spectrophotometer so as to quantify the number of living cells in each compartment.
As for the compartment whose incubation period is predetermined to be five days, on the third day of the incubation, the medium was replaced with a new medium, and thereafter, estradiol and a sample solution were added to the new medium, and the incubation was continued till fifth day. As for the compartment whose incubation period is predetermined to be 0 day, at four hours after the cells were inoculated, an enzyme solution was added to the medium. The medium was maintained in an incubator at a temperature of 37° C. for two hours, followed by determining the absorbance.
Instead of Compounds 1 to 4, eriodictyol was used to determine the absorbance according to a similar procedure to the above-mentioned one, and thus the number of living cells in each compartment was quantified. Furthermore, Control 1 to which neither estradiol nor a sample had been added was used to determine the absorbance according to a similar procedure to the above-mentioned one, and thus the number of living cells in each compartment was quantified, while Control 2 to which no sample had been added was used to determine the absorbance according to a similar procedure to the above-mentioned one, and thus the number of living cells in each compartment was quantified.
When it is assumed that the number of living cells of Control 1 as quantified after a zero-day incubation period is 1, the relative value of living cells as quantified in each of the runs mentioned above is shown in Table 2. Incidentally, each of values shown in Table 2 is the average value and standard deviation of values obtained from eight wells.

SMILES	Radical Scavenging Activity (%) from DPPH Radical Scavenging Activity Test [1] [%]	Antioxidant Activity (%) from β-carotene Fading Test (β-carotene fading test) [%]	Relative Value of Living Cells ([2]; 0.2 μM sample, after 3-days incubation)	Relative Value of Living Cells ([2]; 0.2 μM sample, after 5-days incubation)	Relative Value of Living Cells ([2]; 0.2 μM sample, on 0-day incubation, mean ± SD of eight wells)	Relative Value of Living Cells ([2]; 2 μM sample, after 3-days incubation)	Relative Value of Living Cells ([2]; 2 μM sample, after 5-days incubation)	Relative Value of Living Cells ([2]; 2 μM sample, on 0-day incubation)	Relative Value of Living Cells ([2]; 20 μM sample, after 3-days incubation)	Relative Value of Living Cells ([2]; 20 μM sample, after 5-days incubation)	Relative Value of Living Cells ([2]; 20 μM sample, on 0-day incubation)
Cc1c(C)c2c(c(C)c1O)CC[C@@](C)(CCC[C@H](C)CCC[C@H](C)CCCC(C)C)O2 [α-tocopherol, reference compound]	58.87 ± 1.24	93.00 ± 0.73									
O=C1C[C@@H](c2ccc(O)c(O)c2)Oc2cc(O)cc(O)c21 [Eriodictyol, eriodictyol, reference compound]	68.82 ± 1.12	81.47 ± 2.48	2.88 ± 0.22	7.33 ± 0.60	0.96 ± 0.04	2.90 ± 0.13	7.16 ± 0.36	0.98 ± 0.07	2.54 ± 0.30	5.13 ± 0.62	1.01 ± 0.05
Cc1cc(C(C)(C)C)c(O)c(C(C)(C)C)c1 [BHT, butylated hydroxytoluene, reference compound]	28.51 ± 7.48	85.02 ± 1.89									
